The experiment has as its target T1, JAK3: Recombinant human kinase domain (Homo sapiens, UniProt P52333).
T1 construct: JAK3: Recombinant human kinase domain from Millipore (Cat #14-629) or prepared; purchased Millipore 14-629
Briefly: Determination of IC50 of Janus Kinase (JAK) inhibition, radioactive end-point 33P-ATP assay, JAK3. It counts as biochemical. As to conditions: ATP 1.5 uM, peptide 50 uM, 20 minutes, read-out: JAK3-INHIB-DR/v1~NO ADDITIVE~Enzyme_Conc = 100.

Some results are limits rather than exact numbers.

T1 sequence (P52333 822-1111 limits assumed): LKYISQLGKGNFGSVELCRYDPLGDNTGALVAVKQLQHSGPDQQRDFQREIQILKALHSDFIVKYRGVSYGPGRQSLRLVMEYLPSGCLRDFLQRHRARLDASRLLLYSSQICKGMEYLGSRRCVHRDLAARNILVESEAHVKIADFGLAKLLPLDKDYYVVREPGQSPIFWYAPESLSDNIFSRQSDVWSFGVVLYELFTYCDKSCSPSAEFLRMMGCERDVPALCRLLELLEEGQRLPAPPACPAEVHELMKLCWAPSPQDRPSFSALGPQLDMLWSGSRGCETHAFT
Experimental: Determination of IC50 of Janus Kinase (JAK) Inhibition:
Assay conditions used are described below: • Assay Buffer: JAK Kinase Buffer: 50 mM Hepes [pH 7.2], 10 mM MgCl2, 1 mM DTT, 1 mg/ml BSA. The assay was carried out in this buffer. • Assay Format The kinase activity of all three JAK kinases was measured using a radioactive, end-point assay and with trace amounts of ^33P-ATP. The assays were carried out in 96-well polypropylene plates. Experimental Method:
All concentrations were final in the reaction mixture and all incubations were carried at room temperature. […] Final concentration of DMSO in the reaction was 10%. • 2) Compounds were preincubated with enzyme (0.5 nM JAK3 (commercially available), 0.2 nM JAK3 (prepared), 1 nM JAK2, 5 nM JAK1) for 10 minutes. • 3) Reactions were initiated by the addition of a cocktail of the two substrates (ATP and peptide premixed in the JAK Kinase Buffer). […] JAK1 assay was carried out at an ATP concentration of 10 uM and a peptide concentration of 50 uM. • 4) The duration of the assay for JAK2 and JAK3 is 20 minutes. JAK1 assay was carried out for 40 minutes. With all three enzymes, reactions were terminated by the addition of 0.5M EDTA to a final concentration of 100 mM. • 5) 25 ul of terminated reactions were transferred to 150 ul of a 7.5% (v/v) slurry of streptavidin-coated sepharose beads in MgCl2- and CaCl2-free 1× Phosphate Buffered Saline containing 50 mM of EDTA in 96-well, 1.2 um MultiScreen-BV filter plates. • 6) After a 30-minute incubation, the beads were washed under vacuum with the following buffers: • a. 3 to 4 washes with 200 ul of 2M NaCl. • b. 3 to 4 washes with 200 ul of 2M NaCl plus 1% (v/v) phosphoric acid. • c. 1 wash with water. • 7) Washed plates were dried in a 60° C. oven for between 1 to 2 hours. • 8) 70 ul of Microscint 20 scintillation fluid was added to each well of filter plates and after at least 30 minutes of incubation, radioactive counts were measured in a Perkinelmer microplate scintillation counter.

Turning to `C[C@@H](NC(=O)c1c[nH]c2ncc(-c3nn(C)c4cc(F)ccc34)nc12)c1nc(CC#N)co1` [Example I-62, 2-(6-Fluoro-1-methyl-1H-indazol-3-yl)-5H-pyrrolo[2,3-b]pyrazine-7-carboxylic acid [(R)-1-(4-cyanomethyl-oxazol-2-yl)-ethyl]-amide], the IC50 amounted to 15.1 nM. Regarding `C[C@@H](C#N)CNC(=O)c1c[nH]c2ncc(-c3nn(C)c4cc(F)ccc34)nc12` [Example I-136, 2-(6-Fluoro-1-methyl-1H-indazol-3-yl)-5H-pyrrolo[2,3-b]pyrazine-7-carboxylic acid ((R)-2-cyano-2-methyl-ethyl)-amide], the IC50 came to 176 nM. The figure for `N#CC1CCN(C(=O)[C@H](NC(=O)c2c[nH]c3ncc(-n4ncc5cc(Cl)c(Cl)cc54)nc23)C2CC2)CC1` [Example I-68, 2-(5,6-Dichloro-indazol-1-yl)-5H-pyrrolo[2,3-b]pyrazine-7-carboxylic acid [(R)-2-(4-cyano-piperidin-1-yl)-1-cyclopropyl-2-oxo-ethyl]-amide] is 5.75 nM. The figure for `COCC(C)NC(=O)c1c[nH]c2ncc(-c3nn(C)c4cc(Cl)ccc34)nc12` (stereo not shown) [Example I-152, 2-(6-Chloro-1-methyl-1H-indazol-3-yl)-5H-pyrrolo[2,3-b]pyrazine-7-carboxylic acid (2-methoxy-1-methyl-ethyl)-amide] is 1.15 nM; for `CC(NC(=O)c1c[nH]c2ncc(-c3nn(C)c4cc(F)ccc34)nc12)c1ccon1` (stereo not shown) [Example I-53, 2-(6-Fluoro-1-methyl-1H-indazol-3-yl)-5H-pyrrolo[2,3-b]pyrazine-7-carboxylic acid (1-isoxazol-3-yl-ethyl)-amide] it is 7.07 nM; for `C[C@@H](NC(=O)c1c[nH]c2ncc(-c3nc(S(C)(=O)=O)n4cc(F)ccc34)nc12)C(=O)N1CC(C#N)C1` [Example I-42, 2-(6-Fluoro-3-methanesulfonyl-imidazo[1,5-a]pyridin-1-yl)-5H-pyrrolo[2,3-b]pyrazine-7-carboxylic acid [(R)-2-(3-cyano-azetidin-1-yl)-1-methyl-2-oxo-ethyl]-amide] it is 1.25 nM. The figure for `C[C@@H](NC(=O)c1c[nH]c2ncc(-c3nc(CO)n4cc(F)ccc34)nc12)C(=O)N1CC(C#N)C1` [Example I-35, 2-(6-Fluoro-3-hydroxymethyl-imidazo[1,5-a]pyridin-1-yl)-5H-pyrrolo[2,3-b]pyradine-7-carboxylic acid [(R)-2-(3-cyano-azetidin-1-yl)-1-methyl-2-oxo-ethyl]-amide] is 0.33 nM; for `C[C@@H](NC(=O)c1c[nH]c2ncc(-c3nn(C)c4cccnc34)nc12)C(=O)N1CC(C#N)C1` [Example I-98, 2-(1-Methyl-1H-pyrazolo[4,3-b]pyridin-3-yl)-5H-pyrrolo[2,3-b]pyrazine-7-carboxylic acid [(R)-2-(3-cyano-azetidin-1-yl)-1-methyl-2-oxo-ethyl]-amide] it is 6.78 nM. Take `C[C@@H](NC(=O)c1c[nH]c2ncc(-n3cnc4cc(Cl)ccc43)nc12)C(=O)N1CC(C#N)C1` [Example I-225, 2-(5-Chloro-benzoimidazol-1-yl)-5H-pyrrolo[2,3-b]pyrazine-7-carboxylic acid [(R)-2-(3-cyano-azetidin-1-yl)-1-methyl-2-oxo-ethyl]-amide]: the IC50 was 144 nM. The figure for `COC[C@@H](NC(=O)c1c[nH]c2ncc(-c3nn(C)c4cc(Cl)ccc34)nc12)C(=O)N1CC(F)C1` [Example I-174, 2-(6-Chloro-1-methyl-1H-indazol-3-yl)-5H-pyrrolo[2,3-b]pyrazine-7-carboxylic acid [(R)-2-(3-fluoro-azetidin-1-yl)-1-methoxymethyl-2-oxo-ethyl]-amide] is 1.09 nM; for `C[C@@H](NC(=O)c1c[nH]c2ncc(-c3ncn4cc(F)ccc34)nc12)c1ncco1` [Example I-58, 2-(6-Fluoro-imidazo[1,5-a]pyridin-1-yl)-5H-pyrrolo[2,3-b]pyrazine-7-carboxylic acid ((R)-1-oxazol-2-yl-ethyl)-amide] it is 2.31 nM.

As for `Cn1nc(-c2cnc3[nH]cc(C(=O)NC4CCCC4)c3n2)c2ccc(Cl)cc21` [Example I-106, 2-(6-Chloro-1-methyl-1H-indazol-3-yl)-5H-pyrrolo[2,3-b]pyrazine-7-carboxylic acid cyclopentylamide], the IC50 is 5.26 nM. In the case of `C[C@@H](NC(=O)c1c[nH]c2ncc(-c3nn(C)c4cc(F)ccc34)nc12)c1cc(C(F)(F)F)ccn1` [Example I-79, 2-(6-Fluoro-1-methyl-1H-indazol-3-yl)-5H-pyrrolo[2,3-b]pyrazine-7-carboxylic acid [(R)-1-(4-trifluoromethyl-pyridin-2-yl)-ethyl]-amide] it was 15.1 nM; in that of `C[C@@H](NC(=O)c1c[nH]c2ncc(-c3nn(C)c4cc(Cl)ccc34)nc12)C(=O)N1CC(F)(F)C1` [Example I-14, 2-(6-Chloro-1-methyl-1H-indazol-3-yl)-5H-pyrrolo[2,3-b]pyrazine-7-carboxylic acid [(R)-2-(3,3-difluoro-azetidin-1-yl)-1-methyl-2-oxo-ethyl]-amide], 27.5 nM; in that of `C[C@@H](NC(=O)c1c[nH]c2ncc(-c3nn(Cc4ccccn4)c4cc(Cl)ccc34)nc12)C(=O)N1CC(C#N)C1` [Example I-233, 2-(6-Chloro-1-pyridin-2-ylmethyl-1H-indazol-3-yl)-5H-pyrrolo[2,3-b]pyrazine-7-carboxylic acid [(R)-2-(3-cyano-azetidin-1-yl)-1-methyl-2-oxo-ethyl]-amide], 1.29 nM. In the case of `Cn1nc(-c2cnc3[nH]cc(C(=O)N[C@@H]4CCN(CC#N)C4)c3n2)c2ccc(F)cc21` [Example I-214, 2-(6-Fluoro-1-methyl-1H-indazol-3-yl)-5H-pyrrolo[2,3-b]pyrazine-7-carboxylic acid ((R)-1-cyanomethyl-pyrrolidin-3-yl)-amide] it was 27.3 nM. In the case of `Cn1nc(-c2cnc3[nH]cc(C(=O)NC(C)(C)CO)c3n2)c2ccc(F)cc21` [Example I-363, 2-(6-Fluoro-1-methyl-1H-indazol-3-yl)-5H-pyrrolo[2,3-b]pyrazine-7-carboxylic acid (2-hydroxy-1,1-dimethyl-ethyl)-amide] it was above 1000 nM; in that of `C[C@H](CCC#N)NC(=O)c1c[nH]c2ncc(-c3nn(C)c4cc(Cl)ccc34)nc12` [Example I-205, 2-(6-Chloro-1-methyl-1H-indazol-3-yl)-5H-pyrrolo[2,3-b]pyrazine-7-carboxylic acid ((R)-3-cyano-1-methyl-propyl)-amide], 18.4 nM; in that of `COC[C@H](C)NC(=O)c1c[nH]c2ncc(-c3nn(C)c4cc(Cl)cc(F)c34)nc12` [Example I-170, 2-(6-Chloro-4-fluoro-1-methyl-1H-indazol-3-yl)-5H-pyrrolo[2,3-b]pyrazine-7-carboxylic acid ((S)-2-methoxy-1-methyl-ethyl)-amide], 7.12 nM. Turning to `Cn1nc(-c2cnc3[nH]cc(C(=O)NCC4CC4)c3n2)c2ccc(F)cc21` [Example I-117, 2-(6-Fluoro-1-methyl-1H-indazol-3-yl)-5H-pyrrolo[2,3-b]pyrazine-7-carboxylic acid cyclopropylmethyl-amide], the IC50 worked out at 8.48 nM. In the case of `C[C@@H](NC(=O)c1c[nH]c2ncc(-c3nn(CC(=O)N(C)C)c4cc(Cl)ccc34)nc12)C(=O)N1CC(C#N)C1` [Example I-227, 2-(6-Chloro-1-dimethylcarbamoylmethyl-1H-indazol-3-yl)-5H-pyrrolo[2,3-b]pyrazine-7-carboxylic acid [(R)-2-(3-cyano-azetidin-1-yl)-1-methyl-2-oxo-ethyl]-amide] it was 4.17 nM; in that of `Cn1nc(-c2cnc3[nH]cc(C(=O)NC(C)(C)C)c3n2)c2cc(OC(F)F)ccc21` [Example I-284, 2-(5-Difluoromethoxy-1-methyl-1H-indazol-3-yl)-5H-pyrrolo[2,3-b]pyrazine-7-carboxylic acid tert-butylamide], 71.2 nM; in that of `CC(C)NC(=O)c1c[nH]c2ncc(-c3nn(CCCN(C)C)c4cc(Cl)cc(F)c34)nc12` [Example I-130, 2-[6-Chloro-1-(3-dimethylamino-propyl)-4-fluoro-1H-indazol-3-yl]-5H-pyrrolo[2,3-b]pyrazine-7-carboxylic acid isopropylamide], 14.3 nM. `C[C@H](CC(=O)N1CCCC1)NC(=O)c1c[nH]c2ncc(-c3nn(C)c4cc(Cl)ccc34)nc12` [Example I-72, 2-(6-Chloro-1-methyl-1H-indazol-3-yl)-5H-pyrrolo[2,3-b]pyrazine-7-carboxylic acid ((R)-1-methyl-3-oxo-3-pyrrolidin-1-yl-propyl)-amide]: the IC50 was determined as 285 nM. In the case of `CC1CCCCC1NC(=O)c1c[nH]c2ncc(-c3nn(C)c4cc(Cl)ccc34)nc12` (stereo not shown) [Example I-153, 2-(6-Chloro-1-methyl-1H-indazol-3-yl)-5H-pyrrolo[2,3-b]pyrazine-7-carboxylic acid (2-methyl-cyclohexyl)-amide] it was 4.02 nM. As to `C[C@@H](NC(=O)c1c[nH]c2ncc(-c3nn(C)c4cc(F)ccc34)nc12)[C@@H]1CCCO1` [Example I-63, 2-(6-Fluoro-1-methyl-1H-indazol-3-yl)-5H-pyrrolo[2,3-b]pyrazine-7-carboxylic acid [(R)-(S)-1-(tetrahydro-furan-2-yl)-ethyl]-amide], the IC50 is 6.67 nM. The figure for `C[C@@H](NC(=O)c1c[nH]c2ncc(-c3nn(C)c4cc(Cl)c(Cl)cc34)nc12)C(=O)N1CC(C#N)C1` [Example I-6, 2-(5,6-Dichloro-1-methyl-1H-indazol-3-yl)-5H-pyrrolo[2,3-b]pyrazine-7-carboxylic acid [(R)-2-(3-cyano-azetidin-1-yl)-1-methyl-2-oxo-ethyl]-amide] is 1.23 nM; for `COC[C@H](C)NC(=O)c1c[nH]c2ncc(-c3nn(C)c4cc(F)c(F)cc34)nc12` [Example I-212, 2-(5,6-Difluoro-1-methyl-1H-indazol-3-yl)-5H-pyrrolo[2,3-b]pyrazine-7-carboxylic acid ((S)-2-methoxy-1-methyl-ethyl)-amide] it is 2.12 nM.

The values are drawn from patent US8658646B2, “Pyrrolopyrazine kinase inhibitors” (Hoffmann-LaRoche Inc., priority 2011, dated 2014).
